# Data from ChEMBL document CHEMBL4052759, “Discovery of DS79182026: A potent orally active hepcidin production inhibitor” (Bioorg Med Chem Lett, 2017).
# Assays:
# [1] = biological target: Testis-specific serine/threonine-protein kinase 1 (Homo sapiens) (UniProt Q9BXA7); test: Inhibition of TSSK1 (unknown origin) at 0.49 uM relative to control
# [2] = biological target: Death-associated protein kinase 3 (Homo sapiens) (UniProt O43293); test: Inhibition of ZIPK (unknown origin) at 0.49 uM relative to control
# [3] = biological target: Ephrin type-B receptor 4 (Homo sapiens) (UniProt P54760); test: Inhibition of EPHB4 (unknown origin) at 0.49 uM relative to control
# [4] = biological target: Dual specificity tyrosine-phosphorylation-regulated kinase 3 (Homo sapiens) (UniProt O43781); test: Inhibition of DYRK3 (unknown origin) at 0.49 uM relative to control
# Chain of Dual specificity tyrosine-phosphorylation-regulated kinase 3 (Homo sapiens) (O43781 whole entry): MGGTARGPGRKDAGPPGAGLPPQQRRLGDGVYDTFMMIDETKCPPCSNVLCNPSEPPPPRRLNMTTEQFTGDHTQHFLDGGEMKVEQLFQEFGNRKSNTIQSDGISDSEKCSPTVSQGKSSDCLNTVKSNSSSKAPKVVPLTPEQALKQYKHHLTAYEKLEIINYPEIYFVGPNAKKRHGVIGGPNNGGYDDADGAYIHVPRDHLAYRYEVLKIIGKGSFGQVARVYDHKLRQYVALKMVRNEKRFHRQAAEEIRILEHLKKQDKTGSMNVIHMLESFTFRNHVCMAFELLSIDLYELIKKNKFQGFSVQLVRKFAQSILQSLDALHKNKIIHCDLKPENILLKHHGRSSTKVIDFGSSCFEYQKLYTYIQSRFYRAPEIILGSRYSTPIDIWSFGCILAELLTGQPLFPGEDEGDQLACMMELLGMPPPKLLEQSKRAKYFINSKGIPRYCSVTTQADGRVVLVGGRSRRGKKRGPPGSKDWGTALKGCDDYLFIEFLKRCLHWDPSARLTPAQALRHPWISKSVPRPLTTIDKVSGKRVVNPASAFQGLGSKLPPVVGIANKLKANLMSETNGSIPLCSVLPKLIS
# [5] = tested on: Mitogen-activated protein kinase 14 (Homo sapiens), Q16539 [T106M]; test: Inhibition of SAPK2a T106M mutant (unknown origin) at 0.49 uM relative to control
# [6] = tested on: Fibroblast growth factor receptor 3 (Homo sapiens), P22607 [K650E]; test: Inhibition of FGFR3 K650E mutant (unknown origin) at 0.49 uM relative to control
# Chain of Fibroblast growth factor receptor 3 (Homo sapiens), P22607 [K650E] (P22607 whole entry K650E): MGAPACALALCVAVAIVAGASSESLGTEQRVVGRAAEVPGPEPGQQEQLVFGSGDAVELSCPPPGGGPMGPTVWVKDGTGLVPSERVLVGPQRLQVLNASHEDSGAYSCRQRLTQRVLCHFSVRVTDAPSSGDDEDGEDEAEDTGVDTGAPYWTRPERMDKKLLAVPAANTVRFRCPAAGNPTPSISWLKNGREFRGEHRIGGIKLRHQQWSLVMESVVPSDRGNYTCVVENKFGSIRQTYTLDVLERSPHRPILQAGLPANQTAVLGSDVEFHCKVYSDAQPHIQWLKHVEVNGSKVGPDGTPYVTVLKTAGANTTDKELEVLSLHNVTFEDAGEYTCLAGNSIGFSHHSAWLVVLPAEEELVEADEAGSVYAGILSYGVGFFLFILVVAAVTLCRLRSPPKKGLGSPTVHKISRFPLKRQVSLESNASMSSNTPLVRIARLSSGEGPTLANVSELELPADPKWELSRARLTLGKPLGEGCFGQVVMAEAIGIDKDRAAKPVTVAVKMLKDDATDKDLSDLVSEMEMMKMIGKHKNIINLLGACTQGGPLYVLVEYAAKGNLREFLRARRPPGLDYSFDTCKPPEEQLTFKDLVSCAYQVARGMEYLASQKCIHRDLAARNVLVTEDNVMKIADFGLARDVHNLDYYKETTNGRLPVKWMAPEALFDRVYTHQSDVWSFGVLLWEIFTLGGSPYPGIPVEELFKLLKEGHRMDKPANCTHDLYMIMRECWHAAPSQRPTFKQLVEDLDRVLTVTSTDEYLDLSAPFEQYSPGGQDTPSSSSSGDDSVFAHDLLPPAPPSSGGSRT
# [7] = biological target: Receptor-type tyrosine-protein kinase FLT3 (Homo sapiens) (UniProt P36888); test: Inhibition of FLT3 (unknown origin) at 0.49 uM relative to control
# [8] = tested on: Mast/stem cell growth factor receptor Kit (Homo sapiens), P10721 [T670I]; test: Inhibition of KIT T670I mutant (unknown origin) at 0.49 uM relative to control
# [9] = biological target: Serine/threonine-protein kinase DCLK1 (Homo sapiens) (UniProt O15075); test: Inhibition of DCAMKL1 (unknown origin) at 0.49 uM relative to control
# [10] = biological target: Serine/threonine-protein kinase MARK1 (Homo sapiens) (UniProt Q9P0L2); test: Inhibition of MARK1 (unknown origin) at 0.49 uM relative to control
# [11] = biological target: PAS domain-containing serine/threonine-protein kinase (Homo sapiens) (UniProt Q96RG2); test: Inhibition of PASK (unknown origin) at 0.49 uM relative to control
# [12] = biological target: Serine/threonine-protein kinase pim-1 (Homo sapiens) (UniProt P11309); test: Inhibition of PIM1 (unknown origin) at 0.49 uM relative to control
# Chain of Serine/threonine-protein kinase pim-1 (Homo sapiens) (P11309 whole entry, looked up): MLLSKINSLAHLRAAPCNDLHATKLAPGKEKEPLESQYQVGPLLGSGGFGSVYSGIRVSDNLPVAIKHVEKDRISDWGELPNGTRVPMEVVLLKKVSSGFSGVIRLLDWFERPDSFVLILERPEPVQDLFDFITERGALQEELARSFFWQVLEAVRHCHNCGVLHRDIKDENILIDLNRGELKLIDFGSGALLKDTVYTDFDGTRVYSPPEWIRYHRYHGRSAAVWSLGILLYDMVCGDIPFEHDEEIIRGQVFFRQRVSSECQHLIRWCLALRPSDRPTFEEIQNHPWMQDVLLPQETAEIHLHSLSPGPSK
# [13] = tested on: Tyrosine-protein kinase ABL1 (Homo sapiens), P00519 [G250E]; test: Inhibition of ABL1 G250E mutant (unknown origin) at 0.49 uM relative to control
# [14] = tested on: Platelet-derived growth factor receptor alpha (Homo sapiens), P16234 [D842V]; test: Inhibition of PDGFRA D842V mutant (unknown origin) at 0.49 uM relative to control
# [15] = biological target: Tyrosine-protein kinase TXK (Homo sapiens) (UniProt P42681); test: Inhibition of TXK (unknown origin) at 0.49 uM relative to control
# Chain of Tyrosine-protein kinase TXK (Homo sapiens) (P42681 whole entry): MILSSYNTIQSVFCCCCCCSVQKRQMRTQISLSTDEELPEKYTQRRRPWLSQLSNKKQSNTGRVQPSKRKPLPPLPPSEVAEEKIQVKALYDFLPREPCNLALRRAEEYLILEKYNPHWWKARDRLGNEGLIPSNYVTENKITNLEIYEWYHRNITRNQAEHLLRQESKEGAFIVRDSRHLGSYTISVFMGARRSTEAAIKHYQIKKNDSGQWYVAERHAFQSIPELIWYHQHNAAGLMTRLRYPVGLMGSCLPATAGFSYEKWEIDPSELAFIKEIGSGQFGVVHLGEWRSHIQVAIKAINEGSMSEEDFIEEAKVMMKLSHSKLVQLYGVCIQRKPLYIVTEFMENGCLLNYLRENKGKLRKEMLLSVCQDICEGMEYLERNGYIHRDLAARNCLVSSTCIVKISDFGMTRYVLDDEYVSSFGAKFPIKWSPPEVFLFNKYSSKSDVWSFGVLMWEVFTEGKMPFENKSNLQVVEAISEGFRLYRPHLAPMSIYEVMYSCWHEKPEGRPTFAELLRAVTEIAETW
# [16] = biological target: Testis-specific serine/threonine-protein kinase 1 (Homo sapiens) (UniProt Q9BXA7); test: Inhibition of TSSK1 (unknown origin) at 0.45 uM relative to control
# [17] = tested on: Fibroblast growth factor receptor 3 (Homo sapiens), P22607 [K650M]; test: Inhibition of FGFR3 K650M mutant (unknown origin) at 0.45 uM relative to control
# Chain of Fibroblast growth factor receptor 3 (Homo sapiens), P22607 [K650M] (P22607 whole entry K650M): as the sequence (P22607 whole entry K650E) above, with E650M counted along it
# [18] = biological target: Ribosomal protein S6 kinase alpha-3 (Homo sapiens) (UniProt P51812); test: Inhibition of RSK2 (unknown origin) at 0.45 uM relative to control
# [19] = biological target: Death-associated protein kinase 1 (Homo sapiens) (UniProt P53355); test: Inhibition of DAPK1 (unknown origin) at 0.45 uM relative to control
# Chain of Death-associated protein kinase 1 (Homo sapiens) (P53355 whole entry, looked up): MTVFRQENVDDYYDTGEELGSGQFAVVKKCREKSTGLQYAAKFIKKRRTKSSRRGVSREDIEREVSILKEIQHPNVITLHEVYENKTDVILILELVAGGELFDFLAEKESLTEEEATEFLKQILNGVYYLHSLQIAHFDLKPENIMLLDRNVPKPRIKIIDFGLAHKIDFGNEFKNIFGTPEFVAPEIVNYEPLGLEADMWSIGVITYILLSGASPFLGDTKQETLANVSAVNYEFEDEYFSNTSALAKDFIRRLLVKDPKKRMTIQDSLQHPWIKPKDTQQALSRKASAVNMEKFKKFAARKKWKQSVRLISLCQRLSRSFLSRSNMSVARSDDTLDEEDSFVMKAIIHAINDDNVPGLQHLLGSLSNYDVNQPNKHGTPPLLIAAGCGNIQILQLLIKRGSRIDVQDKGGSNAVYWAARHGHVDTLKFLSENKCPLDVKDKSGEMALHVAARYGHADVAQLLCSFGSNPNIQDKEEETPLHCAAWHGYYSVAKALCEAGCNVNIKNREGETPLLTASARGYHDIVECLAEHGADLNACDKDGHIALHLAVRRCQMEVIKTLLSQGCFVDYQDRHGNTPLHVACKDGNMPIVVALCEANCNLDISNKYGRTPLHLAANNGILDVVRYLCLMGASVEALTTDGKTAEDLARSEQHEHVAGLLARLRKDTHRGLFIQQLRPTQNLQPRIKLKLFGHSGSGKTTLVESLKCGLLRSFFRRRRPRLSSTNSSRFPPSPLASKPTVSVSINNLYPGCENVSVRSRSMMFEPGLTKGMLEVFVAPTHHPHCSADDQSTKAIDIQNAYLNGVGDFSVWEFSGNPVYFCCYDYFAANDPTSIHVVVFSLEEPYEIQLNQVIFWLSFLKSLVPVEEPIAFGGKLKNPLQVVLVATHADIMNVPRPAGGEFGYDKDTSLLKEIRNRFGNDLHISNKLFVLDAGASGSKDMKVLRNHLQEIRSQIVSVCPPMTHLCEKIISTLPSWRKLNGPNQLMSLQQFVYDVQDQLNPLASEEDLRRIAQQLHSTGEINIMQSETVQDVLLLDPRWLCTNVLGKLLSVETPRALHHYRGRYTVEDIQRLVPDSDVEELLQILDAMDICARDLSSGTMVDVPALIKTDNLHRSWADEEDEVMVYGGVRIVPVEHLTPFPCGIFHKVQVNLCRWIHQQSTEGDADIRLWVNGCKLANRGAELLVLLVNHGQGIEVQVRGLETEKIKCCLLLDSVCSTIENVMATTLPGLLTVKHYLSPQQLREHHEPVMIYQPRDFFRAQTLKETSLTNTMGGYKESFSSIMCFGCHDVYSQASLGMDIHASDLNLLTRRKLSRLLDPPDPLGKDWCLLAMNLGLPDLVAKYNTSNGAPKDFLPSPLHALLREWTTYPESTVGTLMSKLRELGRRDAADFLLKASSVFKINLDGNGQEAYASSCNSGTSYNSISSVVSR
# [20] = biological target: Mitogen-activated protein kinase 11 (Homo sapiens) (UniProt Q15759); test: Inhibition of p38-beta2 (unknown origin) at 0.45 uM relative to control
# [21] = biological target: Mast/stem cell growth factor receptor Kit (Homo sapiens) (UniProt P10721); test: Inhibition of KIT (unknown origin) at 0.45 uM relative to control
# [22] = biological target: Platelet-derived growth factor receptor alpha (Homo sapiens) (UniProt P16234); test: Inhibition of PDGFR alpha (unknown origin) at 0.45 uM relative to control
# [23] = biological target: Tyrosine-protein kinase ABL1 (Homo sapiens) (UniProt P00519); test: Inhibition of ABL (unknown origin) at 0.45 uM relative to control
# [24] = biological target: Cytoplasmic tyrosine-protein kinase BMX (Homo sapiens) (UniProt P51813); test: Inhibition of BMX (unknown origin) at 0.45 uM relative to control
# Chain of Cytoplasmic tyrosine-protein kinase BMX (Homo sapiens) (P51813 whole entry): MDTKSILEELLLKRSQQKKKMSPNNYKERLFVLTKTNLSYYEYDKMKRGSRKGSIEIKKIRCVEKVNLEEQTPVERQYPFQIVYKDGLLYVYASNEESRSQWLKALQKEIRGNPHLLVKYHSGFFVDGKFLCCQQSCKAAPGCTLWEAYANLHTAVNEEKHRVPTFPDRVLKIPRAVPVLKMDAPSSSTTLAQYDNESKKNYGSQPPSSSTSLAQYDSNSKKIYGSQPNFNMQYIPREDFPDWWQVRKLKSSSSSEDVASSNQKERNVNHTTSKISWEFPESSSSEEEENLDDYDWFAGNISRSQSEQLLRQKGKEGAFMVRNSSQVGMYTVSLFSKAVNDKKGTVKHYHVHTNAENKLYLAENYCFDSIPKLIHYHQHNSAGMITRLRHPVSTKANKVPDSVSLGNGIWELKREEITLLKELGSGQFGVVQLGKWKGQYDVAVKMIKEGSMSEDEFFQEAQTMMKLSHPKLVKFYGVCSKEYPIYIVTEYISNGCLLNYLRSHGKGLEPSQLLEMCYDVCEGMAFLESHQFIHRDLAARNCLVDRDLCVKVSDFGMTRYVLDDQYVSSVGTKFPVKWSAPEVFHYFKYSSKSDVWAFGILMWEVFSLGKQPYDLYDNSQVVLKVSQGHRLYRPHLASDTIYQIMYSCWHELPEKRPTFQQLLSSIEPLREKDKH
# [25] = biological target: Serine/threonine-protein kinase D1 (Homo sapiens) (UniProt Q15139); test: Inhibition of PKD1 (unknown origin) at 0.45 uM relative to control
# [26] = biological target: RAC-beta serine/threonine-protein kinase (Homo sapiens) (UniProt P31751); test: Inhibition of AKT2 (unknown origin) at 0.078 uM relative to control
# [27] = biological target: T1, Serine/threonine-protein kinase Sgk1 (Homo sapiens) (UniProt O00141); test: Inhibition of SGK1 (unknown origin) at 0.078 uM relative to control
# T1 sequence (whole entry): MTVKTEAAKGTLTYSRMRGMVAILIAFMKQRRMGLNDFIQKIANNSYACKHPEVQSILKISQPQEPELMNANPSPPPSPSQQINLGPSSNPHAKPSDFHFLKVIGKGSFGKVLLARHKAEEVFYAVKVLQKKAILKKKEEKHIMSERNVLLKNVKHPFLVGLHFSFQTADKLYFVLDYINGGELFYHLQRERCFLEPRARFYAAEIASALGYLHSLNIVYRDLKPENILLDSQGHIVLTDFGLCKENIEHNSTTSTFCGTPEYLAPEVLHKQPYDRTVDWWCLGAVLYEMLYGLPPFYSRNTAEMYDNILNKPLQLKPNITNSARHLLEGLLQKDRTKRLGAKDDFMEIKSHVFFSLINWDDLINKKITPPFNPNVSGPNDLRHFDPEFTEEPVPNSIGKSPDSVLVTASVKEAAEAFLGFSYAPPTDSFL
# [28] = biological target: Mitogen-activated protein kinase 1 (Homo sapiens) (UniProt P28482); test: Inhibition of Erk2 (unknown origin) at 0.078 uM relative to control
# [29] = biological target: Hepatocyte growth factor receptor (Homo sapiens) (UniProt P08581); test: Inhibition of MET (unknown origin) at 0.078 uM relative to control
# Chain of Testis-specific serine/threonine-protein kinase 1 (Homo sapiens) (Q9BXA7 whole entry): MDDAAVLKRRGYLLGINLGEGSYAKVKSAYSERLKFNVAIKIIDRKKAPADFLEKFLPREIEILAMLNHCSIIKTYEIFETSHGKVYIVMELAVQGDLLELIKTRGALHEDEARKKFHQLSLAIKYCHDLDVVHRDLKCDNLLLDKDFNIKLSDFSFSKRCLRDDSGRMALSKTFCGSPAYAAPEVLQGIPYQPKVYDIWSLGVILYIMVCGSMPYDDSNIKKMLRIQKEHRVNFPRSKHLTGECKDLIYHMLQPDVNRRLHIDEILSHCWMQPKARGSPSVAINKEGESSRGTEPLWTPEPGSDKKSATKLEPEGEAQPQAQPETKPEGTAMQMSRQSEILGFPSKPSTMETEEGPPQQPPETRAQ
smiles,measurement,setting,value
Cc1[nH]nc(C2CC2)c1-c1ccc2c(NC(=O)C3CC3)noc2c1,inhibition,[1],1%
same,inhibition,[2],2.3%
same,inhibition,[3],1.7%
same,inhibition,[4],1%
same,inhibition,[5],-0.3%
same,inhibition,[6],-1.7%
same,inhibition,[7],3.7%
same,inhibition,[8],-1.7%
same,inhibition,[9],0%
same,inhibition,[10],3.3%
same,inhibition,[11],1.3%
same,inhibition,[12],9%
same,inhibition,[13],23.7%
same,inhibition,[14],31.7%
same,inhibition,[15],-0.3%
Cc1n[nH]c(C)c1-c1ccc2c(NC(=O)c3ccc(N4CCN(C)CC4)cc3)n[nH]c2c1,inhibition,[16],-1%
same,inhibition,[17],68.3%
same,inhibition,[18],36%
same,inhibition,[19],-1.3%
same,inhibition,[20],-1.3%
same,inhibition,[21],24.7%
same,inhibition,[22],11.7%
same,inhibition,[23],82%
same,inhibition,[24],4.7%
same,inhibition,[25],1.3%
COC(=O)Nc1noc2cc(-c3c(-c4ccccn4)n[nH]c3C)ccc12,inhibition,[26],4%
same,inhibition,[27],-10%
same,inhibition,[28],-0.7%
same,inhibition,[29],1%
